Assay results from patent US11554172B2, “Phosphonate linkers and their use to facilitate cellular retention of compounds” (priority 2016, dated 2023).

What follows are molecules tested against GR full length protein (glucocorticoid receptor) (Homo sapiens (Human), UniProt P04150) (assay: PolarScreen Glucocorticoid Receptor Competitor Assay (GR binding)). Settings: fluorescence polarisation competitor assay, 2-4 hours at room temperature; read-out: GR Bind IC50.
Chain of GR full length protein (glucocorticoid receptor) (P04150 whole entry): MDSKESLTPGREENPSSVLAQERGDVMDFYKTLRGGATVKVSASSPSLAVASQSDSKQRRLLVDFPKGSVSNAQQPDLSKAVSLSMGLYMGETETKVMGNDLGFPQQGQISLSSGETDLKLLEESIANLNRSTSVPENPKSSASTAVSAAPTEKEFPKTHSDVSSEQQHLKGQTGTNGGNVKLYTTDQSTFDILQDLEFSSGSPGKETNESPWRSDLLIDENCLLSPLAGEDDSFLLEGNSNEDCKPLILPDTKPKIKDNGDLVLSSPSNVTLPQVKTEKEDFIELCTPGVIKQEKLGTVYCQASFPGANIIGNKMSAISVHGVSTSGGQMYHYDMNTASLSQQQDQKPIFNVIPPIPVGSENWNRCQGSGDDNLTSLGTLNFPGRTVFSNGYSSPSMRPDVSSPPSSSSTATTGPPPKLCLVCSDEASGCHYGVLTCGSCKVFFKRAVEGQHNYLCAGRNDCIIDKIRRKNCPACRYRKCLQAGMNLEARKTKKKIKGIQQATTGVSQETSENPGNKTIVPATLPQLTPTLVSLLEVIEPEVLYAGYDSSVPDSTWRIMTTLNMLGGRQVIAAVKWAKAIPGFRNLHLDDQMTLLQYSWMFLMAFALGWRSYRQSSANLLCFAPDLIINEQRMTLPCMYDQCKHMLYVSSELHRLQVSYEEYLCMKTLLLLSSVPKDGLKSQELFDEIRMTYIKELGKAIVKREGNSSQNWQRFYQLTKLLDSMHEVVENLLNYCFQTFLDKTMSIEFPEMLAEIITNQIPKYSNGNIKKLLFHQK
Experimental: The potency of binding to gucocorticoid receptor by small molecule compounds was measured with the PolarScreen™ Glucocorticoid Receptor Competitor Assay Kit, Red (Life Technology, Catalog #A15898) according to the procedure in the kit. In brief, after compounds were diluted and transferred into assay plates, the fluormone GS red and GR full length protein were subsequently added into the assay plates, along with the positive and negative controls. The samples were mixed on a shaker for 1 minute and then the plates were incubated at room temperature for 2-4 hours with minimal light exposure. The plates were read with an Envision and the relative fluorescent signals were calculated. The data were plotted in GraphPad Prism and the EC50 values were calculated with non-linear regression curve fit of the data in GraphPad Prism.
In the case of `C[C@@H]1C[C@H]2[C@@H]3C[C@H](F)C4=CC(=O)C=C[C@]4(C)[C@@]3(F)[C@@H](O)C[C@]2(C)[C@@]1(OC(=O)CCCCCP(=O)(O)O)C(=O)SCF` [Compound 19, (6-(((6S,8S,9R,10S,11S,13S,14S,16R,17R)-6,9-difluoro-17-(((fluoromethyl)thio)carbonyl)-11-hydroxy-10,13,16-trimethyl-3-oxo-6,7,8,9,10,11,12,13,14,15,16,17-dodecahydro-3H-cyclopenta[a]phenanthren-17-yl)oxy)-6-oxohexyl)phosphonic acid], the IC50 is reported as 0.14 nM.

What follows are molecules tested on GILZ gene (assay: GILZ gene assay (qPCR, HUT78 / 786-O cells)). Settings: at 10 uM.
Assay type: cell-based
Experimental: GILZ gene assays were conducted as follows. HUT78 cells were cultured in IMEM plus 20% heat inactivated FBS and cell density was maintained between 0.1 to 1.2 million/mL. 786-O cells were cultured in RPMI plus 10% heat inactivated FBS. Actively growing cells were harvested and resuspended in HBSS with 2% FBS at 1.1 million cells per mL then dispensed to 384-well V-bottom plates at 45 μL per well. Serially diluted ADC solution was added to the cell plate (5 μL per well) and mixed for 2 min. Cells were then cultured at 37° C., at 5% CO2 for a designated time before supernatant was removed. Cells were harvested in lysis buffer from the Cells-to-Ct kit (40 μL, Life Technologies, 4391851C) following the supplier's protocol and mixed for 10 min followed by addition of 5 μL per well of stop solution from the kit. cDNA was synthesized with a reverse transcription kit (Life Technologies, 4391852C) follow by qPCR using the TaqMan gene expression master mix (Life Technologies, 4369016) with GILZ gene assay (Life Technologies, Hs00608272_m1) and GAPDH assay (Hs2758991_g1) in a duplex format with 3-4 technical replicates.
For “(6-(3-((3aR,4aS,4bS,11aR,11bS,12S,13aS,13bS)-12-hydroxy-13b-(2-hydroxyacetyl)-11a,13a-dimethyl-2-propyl-4,4a,5,6,11,11a,11b,12,13,13a-decahydro-[1,3]dioxolo[4″,5″:3′,4′]cyclopenta[1′,2′:5,6]naphtho[,2-f]indazol-8(3aH,4bH,13bH)-yl)phenoxy)hexyl)phosphonic acid [Compound 27]”, the “GILZ Max” value was 80% (at.

Same assay, conditions: read-out: GILZ EC50
In the case of “(6-(3-((3aR,4aS,4bS,11aR,11bS,12S,13aS,13bS)-12-hydroxy-13b-(2-hydroxyacetyl)-11a,13a-dimethyl-2-propyl-4,4a,5,6,11,11a,11b,12,13,13a-decahydro-[1,3]dioxolo[4″,5″:3′,4′]cyclopenta[1′,2′:5,6]naphtho[,2-f]indazol-8(3aH,4bH,13bH)-yl)phenoxy)hexyl)phosphonic acid [Compound 27]”, the EC50 is reported as 2760 nM. For `C[C@@H]1C[C@H]2[C@@H]3C[C@H](F)C4=CC(=O)C=C[C@]4(C)[C@@]3(F)[C@@H](O)C[C@]2(C)[C@@]1(OC(=O)CCCCCP(=O)(O)O)C(=O)SCF` [Compound 19, (6-(((6S,8S,9R,10S,11S,13S,14S,16R,17R)-6,9-difluoro-17-(((fluoromethyl)thio)carbonyl)-11-hydroxy-10,13,16-trimethyl-3-oxo-6,7,8,9,10,11,12,13,14,15,16,17-dodecahydro-3H-cyclopenta[a]phenanthren-17-yl)oxy)-6-oxohexyl)phosphonic acid], the EC50 was 1290 nM.

What follows are molecules tested on MDCKII cells (assay: Apparent permeability in MDCKII cells). Settings: Papp, average of A to B and B to A, 1 μM test compound, t=3 hr.
Assay type: in vitro ADME
Experimental: Determination of apparent permeability was as follows. MDCKII cells (kindly provided by the Netherlands Cancer Institute, under a licensing agreement) were seeded on to 96-well transwell culture plates (Millipore Corp, Billerica, Mass.) and used in experiments after five days in culture. […] Substrate solution (150 μL) was added to either the apical (A) or the basolateral (B) compartment of the culture plate, and buffer (150 μL; HBSS, 10 mM HEPES, pH 7.4) with 10 μM cyclosporine A was added to the compartment opposite to that containing the substrate. At t=3 hr, 50 μL samples were removed from both sides of monolayers dosed with test compound and placed in 96 well plates, 50 μL internal standard (1 μM labetolol) and 100 μL HBSS was added to the samples. Samples were analyzed by LC/MS/MS using an Applied Biosystems SCIEX API 5000 triple quadruple mass spectrometer (Concord, ON, Canada) with a TurboIonSpray ion source in the positive ion mode. A Thermo Scientific Transcend LX-2 system (Franklin, Mass.) was coupled to the API 5000 with a flow rate of 800 μL/min to direct sample into the mass spectrometer.
Papp was expressed as 10-6 cm/s.
With `CCC(=O)O[C@]1(C(=O)SCCCCCCP(=O)(O)O)[C@H](C)C[C@H]2[C@@H]3C[C@H](F)C4=CC(=O)C=C[C@]4(C)[C@@]3(F)[C@@H](O)C[C@@]21C` [Compound 7] the “MDCK Permeability (cm × 10-6/sec)” value was 2 cm × 10-6/sec. For `CCC(=O)O[C@]1(C(=O)SCCCCP(=O)(O)O)[C@H](C)C[C@H]2[C@@H]3C[C@H](F)C4=CC(=O)C=C[C@]4(C)[C@@]3(F)[C@@H](O)C[C@@]21C` [Compound 4], the “MDCK Permeability (cm × 10-6/sec)” value was 1.72 cm × 10-6/sec. `C[C@@H]1C[C@H]2[C@@H]3C[C@H](F)C4=CC(=O)C=C[C@]4(C)[C@@]3(F)[C@@H](O)C[C@]2(C)[C@@]1(O)C(=O)SCCCCCCCCCCP(=O)(O)O` [Compound 8] was tested, and the “MDCK Permeability (cm × 10-6/sec)” value was 2.8 cm × 10-6/sec. With `CCCC1O[C@@H]2C[C@H]3[C@@H]4CCC5=Cc6c(cnn6-c6cccc(OCCCCP(=O)(O)O)c6)C[C@]5(C)[C@H]4[C@@H](O)C[C@]3(C)[C@]2(C(=O)CO)O1` (stereo partly shown) [Compound 28] the “MDCK Permeability (cm × 10-6/sec)” value was 1.6 cm × 10-6/sec. For `CCC(=O)O[C@]1(C(=O)SCF)[C@H](C)C[C@H]2[C@@H]3C[C@H](F)C4=CC(=O)C=C[C@]4(C)[C@@]3(F)[C@@H](O)C[C@@]21C` [Fluticasone Propionate, reference compound], the “MDCK Permeability (cm × 10-6/sec)” value was 21.5 cm × 10-6/sec. With `CCC(=O)O[C@]1(C(=O)SCCCCCCCCCCP(=O)(O)O)[C@H](C)C[C@H]2[C@@H]3C[C@H](F)C4=CC(=O)C=C[C@]4(C)[C@@]3(F)[C@@H](O)C[C@@]21C` [Compound 3, (10-(((6S,8S,9R,10S,11S,13S,14S,16R,17R)-6,9-difluoro-11-hydroxy-10,13,16-trimethyl-3-oxo-17-(propionyloxy)-6,7,8,9,10,11,12,13,14,15,16,17-dodecahydro-3H-cyclopenta[a]phenanthrene-17-carbonyl)thio)decyl)phosphonic acid] the “MDCK Permeability (cm × 10-6/sec)” value was 1.04 cm × 10-6/sec. `CCCC1O[C@@H]2C[C@H]3[C@@H]4CCC5=Cc6c(cnn6-c6ccc(OCCCCP(=O)(O)O)cc6)C[C@]5(C)[C@H]4[C@@H](O)C[C@]3(C)[C@]2(C(=O)CO)O1` (stereo partly shown) [Compound 30] was tested, and the “MDCK Permeability (cm × 10-6/sec)” value was 1.9 cm × 10-6/sec. For `C[C@@H]1C[C@H]2[C@@H]3C[C@H](F)C4=CC(=O)C=C[C@]4(C)[C@@]3(F)[C@@H](O)C[C@]2(C)[C@@]1(OC(=O)CCCCCCCCP(=O)(O)O)C(=O)SCF` [Compound 18, (9-(((6S,8S,9R,10S,11S,13S,14S,16R,17R)-6,9-difluoro-17-(((fluoromethyl)thio)carbonyl)-11-hydroxy-10,13,16-trimethyl-3-oxo-6,7,8,9,10,11,12,13,14,15,16,17-dodecahydro-3H-cyclopenta[a]phenanthren-17-yl)oxy)-9-oxononyl)phosphonic acid], the “MDCK Permeability (cm × 10-6/sec)” value was <0.9 cm × 10-6/sec. For `C[C@@H]1C[C@H]2[C@@H]3C[C@H](F)C4=CC(=O)C=C[C@]4(C)[C@@]3(F)[C@@H](O)C[C@]2(C)[C@@]1(O)C(=O)SCCCCCCP(=O)(O)O` [Compound 10], the “MDCK Permeability (cm × 10-6/sec)” value was 1.9 cm × 10-6/sec. With `CCCC1O[C@@H]2C[C@H]3[C@@H]4CCC5=Cc6c(cnn6-c6ccc(OCCCCCCP(=O)(O)O)cc6)C[C@]5(C)[C@H]4[C@@H](O)C[C@]3(C)[C@]2(C(=O)CO)O1` (stereo partly shown) [Compound 31] the “MDCK Permeability (cm × 10-6/sec)” value was 4.1 cm × 10-6/sec. For `CCCC1O[C@@H]2C[C@H]3[C@@H]4CCC5=CC(=O)C=C[C@]5(C)[C@H]4[C@@H](O)C[C@]3(C)[C@]2(C(=O)CO)O1` (stereo partly shown) [Budesonide, reference compound], the “MDCK Permeability (cm × 10-6/sec)” value was 31.6 cm × 10-6/sec. With `C[C@@H]1C[C@H]2[C@@H]3C[C@H](F)C4=CC(=O)C=C[C@]4(C)[C@@]3(F)[C@@H](O)C[C@]2(C)[C@@]1(O)C(=O)SCCCCP(=O)(O)O` [Compound 5] the “MDCK Permeability (cm × 10-6/sec)” value was 1.84 cm × 10-6/sec.
